One data set relates to Raw 264.7 cells. Briefly: Cytotoxicity in Raw 264.7 cells (MTT assay). The data set is classed as cell-based. The arrangement: unit not given here. The conditions noted are these: highest concentration 500 μM. The method, then:
(§1) The cytotoxicity of NP-16 and some of it analogues in Raw 264.7 cells was also evaluated by MTT (3-[4,5-dimethylthiazol-2-yl]-2,5-diphenyltetrazolium bromide) assay according to manufacturer's instructions. A toxic control (1%) SDS was included to ensure the MTT assay was working properly. The highest concentration of NP-16 analogues used was 500 μM due to solubility limitations. SigmaPlot 11.0 (SPSS, IL) was used for graph plotting. Experiments were carried out in triplicate and repeated twice.
(§2) The cytotoxicity of NP-16 and some of it analogues was tested against Raw 264.7 cells, and the cell tolerance of each compounds were documented in Table 3. Along with the in vitro staphyloxanthin production of the NP-16 analogues were being tested, the compounds can exert staphyloxanthin production inhibition. The staphyloxanthin from the overnight-cultured bacteria were extracted with methanol and quantified in via spectrophotometry. The results were presented in relative ratio to NP-16 in both the inhibition ratio as well as the TC50 in Table 3 (compound/analogue numbers correspond to those listed in Table 1).
For orientation: Tetrazolium dyes change colour on reduction, which living cells bring about.

In data set [1] the test system is S. aureus pigment formation (staphyloxanthin production). Briefly: In vitro pigment inhibition / staphyloxanthin production in S. aureus. The data set is classed as cell-based, Staphylococcus aureus. The following applies: S. aureus USA300, staphyloxanthin methanol extract OD 450 nm, compounds 300 nM to 700 nM, NP16 = 1. The method, then: S. aureus was propagated in Brain Heart Infusion broth (BHI) or on BHI agar (Oxoid). The in vitro pigment inhibition studies were performed by S. aureus USA300 cultured in BHI with or without the presence of inhibitor compounds at 37° C. and 250 rpm for 36-48 hours. The bacteria were washed twice with PBS prior to the staphyloxanthin purification with methanol. The OD of the extracts were monitor at 450 nm using DTX880 multi-plate reader spectrophotometer (Beckman). The concentration range tested for the compounds were between 300 nM to 700 nM, and control groups were added with equal volume of DMSO.
(§3) The IC50 values were obtained by fitting the inhibition data to a normal dose-response curve in SigmaPlot (CA).
as §2

Data set [2] has as its system polymorphonuclear leukocytes. The following applies: at high concentrations, reference [14]; cited from earlier work.
Data set [3] can be described thus: Solubility limit in cytotoxicity testing. The conditions noted are these: cytotoxicity (MTT) assay medium; read-out: Highest concentration that could be used due to solubility limitations. Type of data set: physicochemical. The method, then:
(§4) The cytotoxicity of NP16 in MDCK cells was evaluated by MTT (3-[4,5-dimethylthiazol-2-yl]-2,5-diphenyltetrazolium bromide) assay according to manufacturer's instructions. A toxic control (1%) SDS was included to ensure the MTT assay was effective. The highest concentration of NP16 that could be used was 500 μM due to solubility limitations. SigmaPlot 11.0 (SPSS, IL) was used for graph plotting. Experiments were repeated twice in triplicate.
as §1

The test system of another data set is MDCK cells. Briefly: Cytotoxicity in MDCK cells (MTT assay). Type of data set: cell-based. The following applies: up to 500 μM. The procedure: as §4, §3
Data set [4] addresses 4,4-diapophytoene desaturase (CrtN) (Staphylococcus aureus, UniProt Q7A3E2). The conditions noted are these: reference [5]; cited from earlier work.

≈ marks a conversion by molar mass, not a printed value. Bounds are passed on as bounds.

Chain of 4,4-diapophytoene desaturase (CrtN) (Q7A3E2 whole entry): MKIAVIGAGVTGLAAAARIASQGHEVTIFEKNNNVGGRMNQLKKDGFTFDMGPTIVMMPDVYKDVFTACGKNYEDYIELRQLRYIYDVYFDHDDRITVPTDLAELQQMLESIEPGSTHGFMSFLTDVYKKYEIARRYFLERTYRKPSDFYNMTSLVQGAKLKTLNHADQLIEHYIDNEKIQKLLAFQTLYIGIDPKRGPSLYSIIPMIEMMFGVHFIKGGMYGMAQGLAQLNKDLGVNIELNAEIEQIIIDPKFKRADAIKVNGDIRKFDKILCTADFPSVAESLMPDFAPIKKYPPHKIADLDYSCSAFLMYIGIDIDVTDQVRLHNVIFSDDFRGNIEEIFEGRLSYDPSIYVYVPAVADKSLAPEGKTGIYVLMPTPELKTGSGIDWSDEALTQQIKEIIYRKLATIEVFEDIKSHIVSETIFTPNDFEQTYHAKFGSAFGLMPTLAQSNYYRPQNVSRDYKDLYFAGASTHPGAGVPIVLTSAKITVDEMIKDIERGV

On to `O=C(/C=C/c1ccc(Br)cc1)Nc1ccc(S(=O)(=O)N2CCCC2)cc1` [Compound 13, 3-(4-bromophenyl)-N-[4-(1-pyrrolidinylsulfonyl)phenyl]acryl-amide], for which, in the data set with Raw 264.7 cells, the “TC50 to Raw 264.7 cells” value is reported as greater than 200. The “Relative ratio to NP16 based on inhibition ratio” value in data set [1] is on record as 0.25.

Consider `Cc1ccccc1/C=C/C(=O)Nc1ccc(S(=O)(=O)N2CCCC2)cc1` [Compound 15, 3-(6-methylphenyl)-N-[4-(1-pyrrolidinylsulfonyl)phenyl]acryl-amide], for which the “TC50 to Raw 264.7 cells” value with Raw 264.7 cells is on record as greater than 200. Besides, the “Relative ratio to NP16 based on inhibition ratio” value in data set [1] is listed as 1.73.

For the molecule `CC(=O)Oc1ccccc1/C=C/C(=O)Nc1ccc(S(=O)(=O)N2CCCC2)cc1` [Compound 18, 3-(6-acetoxylphenyl)-N-[4-(1-pyrrolidinylsulfonyl)phenyl]acryl-amide], the “TC50 to Raw 264.7 cells” value in the data set on Raw 264.7 cells is on record as roughly 150. Moreover, the “Relative ratio to NP16 based on inhibition ratio” value in data set [1] turned out to be 0.35.

Regarding `CC(=O)Oc1cccc(/C=C/C(=O)Nc2ccc(S(=O)(=O)N3CCCC3)cc2)c1` [Compound 17, 3-(5-acetoxylphenyl)-N-[4-(1-pyrrolidinylsulfonyl)phenyl]acryl-amide], in the data set on Raw 264.7 cells, the “TC50 to Raw 264.7 cells” value is roughly 75. Moreover, in data set [1], the “Relative ratio to NP16 based on inhibition ratio” value was 0.58.

Consider `CN(C/C=C/c1ccccc1)Cc1cccc2ccccc12` [naftifine], for which, in data set [2], the “Chemotaxis, chemokinesis, chemiluminescence and superoxide anion production of polymorphonuclear leukocytes” value was “suppress”.

As for `O=C(/C=C/c1cccc(-c2ccccc2)c1)Nc1ccc(S(=O)(=O)N2CCCC2)cc1` [Compound 20, 3-(5-phenylphenyl)-N-[4-(1-pyrrolidinylsulfonyl)phenyl]acryl-amide], the “TC50 to Raw 264.7 cells” value in the data set on Raw 264.7 cells was greater than 200. In addition, the “Relative ratio to NP16 based on inhibition ratio” value in data set [1] came out at 0.61.

Consider `O=C(/C=C/c1cccc(Br)c1)Nc1ccc(S(=O)(=O)N2CCCC2)cc1` [Compound 11, 3-(5-bromophenyl)-N-[4-(1-pyrrolidinylsulfonyl)phenyl]acryl-amide], for which, in the data set on Raw 264.7 cells, the “TC50 to Raw 264.7 cells” value was greater than 200. Further, the “Relative ratio to NP16 based on inhibition ratio” value in data set [1] stood at 1.03.

For the molecule `O=C(/C=C/c1ccccc1)Nc1ccc(S(=O)(=O)N2CCCC2)cc1` [Compound 1, 3-phenyl-N-[4-(1-pyrrolidinylsulfonyl)phenyl]acryl-amide], the “TC50 to Raw 264.7 cells” value in the data set on Raw 264.7 cells is recorded as greater than 200. Further, the solubility in data set [3] stood at 500 µM (≈ 178 µg/mL). Besides, the “Effect on the growth of MDCK cells” value in the data set with MDCK cells is given as “no effect”.

Consider `O=C(/C=C/c1ccccc1Br)Nc1ccc(S(=O)(=O)N2CCCC2)cc1` [Compound 12, 3-(6-bromophenyl)-N-[4-(1-pyrrolidinylsulfonyl)phenyl]acryl-amide], for which the “TC50 to Raw 264.7 cells” value in the data set with Raw 264.7 cells is given as greater than 200. The “Relative ratio to NP16 based on inhibition ratio” value in data set [1] turned out to be 2.35.

For `O=C(/C=C/c1ccc(O)cc1)Nc1ccc(S(=O)(=O)N2CCCC2)cc1` [Compound 16, 3-(4-hydroxylphenyl)-N-[4-(1-pyrrolidinylsulfonyl)phenyl]acryl-amide], in the data set on Raw 264.7 cells, the “TC50 to Raw 264.7 cells” value was found to be 75. In addition, the “Relative ratio to NP16 based on inhibition ratio” value in data set [1] was 0.33.

`Cc1ccc(/C=C/C(=O)Nc2ccc(S(=O)(=O)N3CCCC3)cc2)cc1` [Compound 14, 3-(4-methylphenyl)-N-[4-(1-pyrrolidinylsulfonyl)phenyl]acryl-amide]: in the data set on Raw 264.7 cells, the “TC50 to Raw 264.7 cells” value is given as greater than 200. Further, in data set [1], the “Relative ratio to NP16 based on inhibition ratio” value is reported as 0.83.

Regarding `CC(=O)Oc1ccc(/C=C/C(=O)Nc2ccc(S(=O)(=O)N3CCCC3)cc2)cc1` [Compound 19, 3-(4-acetoxylphenyl)-N-[4-(1-pyrrolidinylsulfonyl)phenyl]acryl-amide], the “TC50 to Raw 264.7 cells” value with Raw 264.7 cells is given as roughly 150. Also, the “Relative ratio to NP16 based on inhibition ratio” value in data set [1] was found to be 0.86.

With `c1ccc(Nc2ccccc2)cc1` [Diphenylamine], the “Inhibition of CrtN” value in data set [4] is “high micromolar level”.

The record behind these values is patent publication US11446280B2, “Compounds and methods for the treatment of microbial infections” (Versitech Limited, priority 2017, dated 2022).
